We go through one compound from patent US20210337789A1, “Derivatives of m-Guaiacol, Their Preparation and Their Uses” (Universite de Caen Normandie, priority 2018, published 2021).

One test concerns the target T1, androgenic receptors (Homo sapiens, UniProt P10275).
T1 sequence (P10275 1-920): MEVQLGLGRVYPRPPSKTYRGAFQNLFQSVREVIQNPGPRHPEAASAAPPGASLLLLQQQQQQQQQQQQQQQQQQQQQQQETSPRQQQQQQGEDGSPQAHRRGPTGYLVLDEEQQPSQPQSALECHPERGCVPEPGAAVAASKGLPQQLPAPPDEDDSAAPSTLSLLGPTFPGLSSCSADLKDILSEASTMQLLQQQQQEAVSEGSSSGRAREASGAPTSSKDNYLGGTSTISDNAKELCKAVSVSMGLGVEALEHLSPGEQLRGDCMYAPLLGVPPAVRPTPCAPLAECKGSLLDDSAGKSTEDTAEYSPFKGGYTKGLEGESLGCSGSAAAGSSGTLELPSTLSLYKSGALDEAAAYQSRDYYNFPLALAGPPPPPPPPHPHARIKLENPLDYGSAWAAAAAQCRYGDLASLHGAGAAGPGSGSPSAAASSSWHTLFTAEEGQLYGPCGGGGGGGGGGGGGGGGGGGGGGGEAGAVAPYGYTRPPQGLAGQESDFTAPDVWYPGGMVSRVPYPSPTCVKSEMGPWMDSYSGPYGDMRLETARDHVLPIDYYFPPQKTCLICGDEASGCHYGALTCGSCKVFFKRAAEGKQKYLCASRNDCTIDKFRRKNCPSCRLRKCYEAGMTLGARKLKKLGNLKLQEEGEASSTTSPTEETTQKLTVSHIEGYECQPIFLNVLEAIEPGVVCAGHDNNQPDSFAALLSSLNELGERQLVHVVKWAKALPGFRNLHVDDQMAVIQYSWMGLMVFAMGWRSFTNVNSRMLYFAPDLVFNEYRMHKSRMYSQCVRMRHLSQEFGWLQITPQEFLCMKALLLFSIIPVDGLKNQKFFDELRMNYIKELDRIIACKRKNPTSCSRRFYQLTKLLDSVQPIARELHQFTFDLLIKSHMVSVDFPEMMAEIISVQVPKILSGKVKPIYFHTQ
Briefly: Affinity test for androgenic receptors, inhibition of bonding of radioactive marked testosterone. In kind it is binding. The settings on record: 10^−5 M, greater than 50% considered significant, read-out: % of inhibition (average of the two measurements).

Test [1] relates to Micrococcus luteus reference strain. Briefly: Bacterial growth (optical density at 600 nm) on Micrococcus luteus reference strain. The format is cell-based. Set-up: key: 0 = no effect, 1 = pure only, 2 = several concentrations, 3 = strong at all. The settings on record: in DMSO diluted in PBS, compared with triclosan. Here is the method: The bacterial growth is evaluated by measuring the optical density (DO) at 600 nm using NanoDrop.
This ratio permits a classification of the molecules in 4 effect levels: • 0=no effect observed; • 1=effect observed only when the molecule is tested pure; • 2=effect observed at several concentrations, but which gradually decreases the dilutions; • 3=strong effect observed at each concentration of molecule tested.
The molecules are put in a solution in DMSO and diluted in PBS.

A word on the inhibition: it is the relative decrease from the control value, in per cent.

Structures are written as SMILES.

As to `COc1cc(O)c(Br)c(Cl)c1F` [sr7615], the inhibition at 10 µM at androgenic receptors came out at 3.1%. This compound also had an Effect level in test [1] of 3.
